According to patent publication US20250051355A1, “COMPOUNDS, COMPOSITIONS, AND METHODS” (ACONCAGUA BIO, INC., priority 2023, published 2025):

Assays:
[1] = molecular target: human calcitonin receptor (CTR) and RAMP3 (AMY3) (Homo sapiens, UniProt O60896+P30988); assay: Amylin Receptor cAMP Assay I; type: cell-based; conditions: COS-7/AMY3 cells, cAMP Hi-range Kit, read-out: Amylin Receptor cAMP Stimulation Activity: EC50
Procedure, shortened: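 COS-7 cells stably co-expressing human CTR and RAMP3, 1000 cells/well, exposed to 4-fold serially diluted compound in DPBS with 0.5 mM IBMX and 0.1% BSA for 30 min at 37° C. cAMP accumulation measured by HTRF (cAMP-d2 plus anti-cAMP cryptate, 1 h room temperature), read at 665/615 nm.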

[2] = molecular target: T1, human calcitonin receptor (CTR) (Homo sapiens, UniProt P30988); assay: Calcitonin receptor (CTR) cAMP Assay; type: cell-based; conditions: COS7-human CTR Clone #2 cells, cAMP dynamic 2 kit; read-out: Calcitonin Receptor cAMP Stimulation Activity: EC50
T1 construct: expressed in transfected cells; host or cells: COS-7 (COS7-human CTR Clone #2)
T1 sequence (P30988 25-474): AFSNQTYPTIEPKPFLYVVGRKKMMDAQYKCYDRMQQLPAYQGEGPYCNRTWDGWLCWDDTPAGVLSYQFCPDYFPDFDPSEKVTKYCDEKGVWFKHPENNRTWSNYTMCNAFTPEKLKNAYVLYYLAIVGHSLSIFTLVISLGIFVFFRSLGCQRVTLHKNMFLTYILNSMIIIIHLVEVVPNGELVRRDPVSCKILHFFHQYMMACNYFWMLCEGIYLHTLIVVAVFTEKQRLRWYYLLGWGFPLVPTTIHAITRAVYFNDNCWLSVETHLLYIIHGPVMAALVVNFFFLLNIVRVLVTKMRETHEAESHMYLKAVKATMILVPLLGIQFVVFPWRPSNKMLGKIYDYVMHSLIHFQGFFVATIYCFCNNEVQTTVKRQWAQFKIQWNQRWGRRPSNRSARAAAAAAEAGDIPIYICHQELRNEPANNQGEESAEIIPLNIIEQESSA
Procedure, shortened: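 COS-7 cells stably expressing human CTR (2000 cells/well) treated with 4-fold serially diluted compounds in HBSS/20 mM HEPES/0.5 mM IBMX/0.1% casein, 30 min at 37° C. cAMP quantified by HTRF (cAMP-d2 plus anti-cAMP cryptate, 1 h RT), fluorescence read at 665 and 615 nm.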

human calcitonin receptor (CTR) and RAMP3 (AMY3), sequence (O60896 24-148, one chain of several): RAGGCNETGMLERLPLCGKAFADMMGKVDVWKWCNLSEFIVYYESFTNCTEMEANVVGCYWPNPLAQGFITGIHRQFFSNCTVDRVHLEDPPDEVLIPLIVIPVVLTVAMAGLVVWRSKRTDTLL

Row | SMILES | EC50 [1] [nM] | EC50 [2] [nM]
1 | Cc1nnc(-c2c(CCc3ccc(F)cc3)nc3c(c2-c2ccc(C(=O)NCc4ccc(F)c(F)c4)s2)C(=O)N[C@H]3C(C)C)o1 [Compound 1, N-(3,4-difluorophenyl)methyl-5-{(S)-5-[2-(p-fluorophenyl)ethyl]-3-isopropyl-6-(5-methyl-1,3,4-oxadiazol-2-yl)-1-oxo-2,4-diaza-7-indanyl)-2-thenamide] | 43.9 | 3.7
2 | Cc1nnc(-c2c(CCc3ccc(F)cc3)nc3c(c2-c2ccc(C(=O)NCc4ccc(F)c(F)c4)s2)C(=O)N[C@@H]3C(C)C)o1 [Compound 2, N-(3,4-difluorophenyl)methyl-5-((R)-5-[2-(p-fluorophenyl)ethyl]-3-isopropyl-6-(5-methyl-1,3,4-oxadiazol-2-yl)-1-oxo-2,4-diaza-7-indanyl}-2-thenamide] | 33.3 | 7
3 | Cc1nnc(-c2c(CCc3ccc(F)cc3)nc3c(c2-c2ccc(C(=O)NCc4ccc(F)c(F)c4)s2)C(=O)N2CCC[C@@H]32)o1 [Compound 4, (S)—N-(3,4-difluorobenzyl)-5-(2-(4-fluorophenethyl)-3-(5-methyl-1,3,4-oxadiazol-2-yl)-5-oxo-7,8,9,9a-tetrahydro-5H-pyrido[2,3-a]pyrrolizin-4-yl)thiophene-2-carboxamide] | 47.5 | 4.5
4 | Cc1nnc(-c2c(COc3ccc(F)cc3)nc3c(c2-c2ccc(C(=O)NCc4ccc(F)c(F)c4)s2)C(=O)N2CCC[C@@H]32)o1 [Compound 7, (S)—N-(3,4-difluorobenzyl)-5-(2-((4-fluorophenoxy)methyl)-3-(5-methyl-1,3,4-oxadiazol-2-yl)-5-oxo-7,8,9,9a-tetrahydro-5H-pyrido[2,3-a]pyrrolizin-4-yl)thiophene-2-carboxamide] | 128 | 76
5 | Cc1nnc(-c2c(CC(C)c3ccc(F)cc3)nc3c(c2-c2ccc(C(=O)NCc4ccc(F)c(F)c4)s2)C(=O)N2CCC[C@@H]32)o1 (stereo partly drawn) [Compound 9, N-(3,4-difluorobenzyl)-5-((9aS)-2-(2-(4-fluorophenyl)propyl)-3-(5-methyl-1,3,4-oxadiazol-2-yl)-5-oxo-7,8,9,9a-tetrahydro-5H-pyrido[2,3-a]pyrrolizin-4-yl)thiophene-2-carboxamide] | 53.3 | 15
6 | Cc1nnc(-c2c(CCc3ccc(F)cc3)nc3c(c2-c2ccc(C(=O)NCc4ccc(F)c(F)c4)s2)c(=O)n2n3CCC2)o1 [Compound 15, N-(3,4-difluorophenyl)methyl-5-(11-[2-(p-fluorophenyl)ethyl]-10-(5-methyl-1,3,4-oxadiazol-2-yl)-7-oxo-2,6,12-triazatricyclo[6.4.0.0^2,6]dodeca-1(12),8,10-trien-9-yl}-2-thenamide] | 88.4 | 17
7 | Cc1nnc(-c2c(CCc3ccc(F)cc3)nc3c(c2-c2ccc(C(=O)NCc4ccc(F)c(F)c4)s2)S(=O)(=O)N2CCC[C@@H]32)o1 [Compound 17, (S)—N-(3,4-difluorobenzyl)-5-(2-(4-fluorophenethyl)-3-(5-methyl-1,3,4-oxadiazol-2-yl)-5,5-dioxido-7,8,9,9a-tetrahydropyrrolo[1′,2′:2,3]isothiazolo[4,5-b]pyridin-4-yl)thiophene-2-carboxamide] | 65.8 | 5.5
8 | Cc1nnc(-c2c(CCc3ccc(F)cc3)nc3c(c2-c2ccc(C(=O)NCc4ccc(F)c(F)c4)s2)S(=O)(=O)N[C@H]3C(C)C)o1 [Compound 18, (S)—N-(3,4-difluorobenzyl)-5-(5-(4-fluorophenethyl)-3-isopropyl-6-(5-methyl-1,3,4-oxadiazol-2-yl)-1,1-dioxido-2,3-dihydroisothiazolo[4,5-b]pyridin-7-yl)thiophene-2-carboxamide] | 31.1 | 2
9 | Cc1nnc(-c2c(CCc3ccc(F)cc3)nc3c(c2-c2ccc(C(=O)NCc4ccc(F)c(F)c4)s2)S(=O)(=O)CC3C(C)C)o1 (stereo not shown) [Compound 19, N-(3,4-difluorobenzyl)-5-(5-(4-fluorophenethyl)-3-isopropyl-6-(5-methyl-1,3,4-oxadiazol-2-yl)-1,1-dioxido-2,3-dihydrothieno[3,2-b]pyridin-7-yl)thiophene-2-carboxamide] | 25.3 | 5.3
10 | Cc1nnc(-c2c(CCC3CCOCC3)nc3c(c2-c2ccc(C(=O)NCc4ccc(F)c(F)c4)s2)C(=O)N2CCC[C@@H]32)o1 [Compound 29] | 128 | 31
11 | Cc1nnc(-c2c(CCc3ccc(F)cc3F)nc3c(c2-c2ccc(C(=O)NCc4ccc(F)c(F)c4)s2)C(=O)N2CCC[C@@H]32)o1 [Compound 42, 5-[(9aS)-2-[2-(2,4-difluorophenyl)ethyl]-3-(5-methyl-1,3,4-oxadiazol-2-yl)-5-oxo-7,8,9,9a-tetrahydropyrido[2,3-a]pyrrolizin-4-yl]-N-[(3,4-difluorophenyl)methyl]thiophene-2-carboxamide] | 114 | 14
12 | Cc1nnc(-c2c(CCC3CCCOC3)nc3c(c2-c2ccc(C(=O)NCc4ccc(F)c(F)c4)s2)C(=O)N2CCC[C@@H]32)o1 (stereo partly drawn) [Compound 61, N-(3,4-difluorobenzyl)-5-((9aS)-3-(5-methyl-1,3,4-oxadiazol-2-yl)-5-oxo-2-(2-(tetrahydro-2H-pyran-3-yl)ethyl)-7,8,9,9a-tetrahydro-5H-pyrido[2,3-a]pyrrolizin-4-yl)thiophene-2-carboxamide] | 178 | 39
13 | Cc1nnc(-c2c(CCC3CCOCC3)nc3c(c2-c2cc4ccnc(NCc5ccc(F)c(F)c5)c4s2)C(=O)N2CCC[C@@H]32)o1 [Compound 63] | 78.5 | 2.8
14 | Cc1nnc(-c2c(CCC3CCOCC3)nc3c(c2-c2cc4ccnc(NCc5cccc(F)c5)c4s2)C(=O)N2CCC[C@@H]32)o1 [Compound 70] | 811 | 45
15 | Cc1nnc(-c2c(CCC3CCOCC3)nc3c(c2-c2cc4ccnc(N[C@@H]5CCc6ccc(F)cc65)c4s2)C(=O)N2CCC[C@@H]32)o1 [Compound 72] | 81.4 | 
16 | COc1cccc(CNc2nccc3cc(-c4c5c(nc(CCC6CCOCC6)c4-c4nnc(C)o4)[C@@H]4CCCN4C5=O)sc23)c1 [Compound 73] | 2200 | 
17 | CO[C@H]1C[C@@H](Nc2nccc3cc(-c4c5c(nc(CCC6CCOCC6)c4-c4nnc(C)o4)[C@@H]4CCCN4C5=O)sc23)c2ccccc21 [Compound 74] | 860 | 
18 | Cc1cnc(-c2c(CCC3CCOCC3)nc3c(c2-c2cc4ccnc(NCc5cncc(F)c5)c4s2)C(=O)N2CCC[C@@H]32)o1 [Compound 75] | 360 | 
19 | CCc1nc2c(c(-c3ccc(C(=O)N[C@@H]4CCc5cc(F)ccc54)s3)c1-c1nnc(C)o1)C(=O)N1CCC[C@@H]21 [Compound 82, N—[(R)-5-fluoro-1-indanyl]-5-((2S)-11-ethyl-10-(5-methyl-1,3,4-oxadiazol-2-yl)-7-oxo-6,12-diazatricyclo[6.4.0.0^2,6]dodeca-1(8),9,11-trien-9-yl}-2-thenamide] | 1810 | 
20 | COc1cccc2c1CC[C@H]2Nc1nccc2cc(-c3c4c(nc(CCC5CCOCC5)c3-c3nnc(C)o3)[C@@H]3CCCN3C4=O)sc12 [Compound 83, (2S,6R)-9-(7-[(R)-4-methoxy-1-indanylamino]-1-thia-6-aza-2-indenyl}-10-(5-methyl-1,3,4-oxadiazol-2-yl)-11-[2-(tetrahydro-2H-pyran-4-yl)ethyl]-6,12-diazatricyclo[6.4.0.0^2,6,]dodeca-1(8), 9,11-trien-7-one] | 59 | 
